Experiment [1] deals with T1, human matrix metalloproteinase-2 (MMP-2; gelatinase A) (Homo sapiens, UniProt P08253).
T1 construct: to prepare the enzymatically active mature form of the enzyme; endogenous in cells; host or cells: human dermal fibroblasts (secreted into culture supernatant)
T1 sequence (P08253 110-660): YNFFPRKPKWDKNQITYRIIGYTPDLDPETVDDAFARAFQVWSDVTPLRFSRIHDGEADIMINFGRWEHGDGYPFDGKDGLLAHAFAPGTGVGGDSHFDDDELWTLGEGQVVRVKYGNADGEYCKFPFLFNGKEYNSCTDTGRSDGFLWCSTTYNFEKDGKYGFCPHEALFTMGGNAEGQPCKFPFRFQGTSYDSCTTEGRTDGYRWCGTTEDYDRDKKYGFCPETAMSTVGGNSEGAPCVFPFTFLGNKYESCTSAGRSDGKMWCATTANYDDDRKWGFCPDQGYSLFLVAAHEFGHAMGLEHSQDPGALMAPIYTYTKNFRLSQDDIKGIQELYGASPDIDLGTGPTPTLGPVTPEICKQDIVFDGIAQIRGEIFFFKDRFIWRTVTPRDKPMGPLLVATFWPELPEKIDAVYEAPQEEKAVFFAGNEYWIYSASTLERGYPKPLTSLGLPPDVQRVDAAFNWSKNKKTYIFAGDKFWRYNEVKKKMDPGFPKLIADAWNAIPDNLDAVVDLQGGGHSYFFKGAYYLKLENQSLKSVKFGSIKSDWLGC
As to the kind of experiment: Inhibition of human matrix metalloproteinase-2 (gelatinase A). It is filed as biochemical. Conditions: trypsin-activated MMP-2 from human dermal fibroblast culture supernatant; read-out: MMP-2 (50% inhibition). From the text:
MMP-2 is easily prepared by standard procedures from the culture medium of cultivated human fibroblasts in reasonable quantities, and is therefore readily available. […] A screening system based on the measurement of the proteolytic activity of MMP-2 was developed to analyse the inhibitory effects of the various inhibitors described in Table 1.
To this end, human dermal fibroblasts were obtained and maintained in culture using standard methods. The cell-free culture supernatant containing the secreted pro-MMP-2 was treated with trypsin. The trypsin was inactivated with the specific active-site serine proteinase inhibitor Nα-p-tosyl-L-lysine-chloromethylketone (TLCK), and the active MMP-2 was partially purified by gel filtration on Sepharose 4B. The isolated MMP-2 was identified and characterized by the use of a commercially available immunoassay.
A simple nonradioactive assay was developed to measure MMP-2 activity using gelatin as a substrate that allows both a large number of samples to be analysed in parallel and to generate kinetic data. Partially purified MMP-2 was incubated with a suitable dilution of gelatin under standardized conditions (time, buffer, pH, temperature, inhibitor, additives), and uncleaved gelatin was separated from degradation products by suction filtration through a nitrocellulose filter. High-molecular-weight gelatin is thereby bound to the nitrocellulose filter, and the low-molecular-weight gelatin-derived peptides pass through it. The nitrocellulose-bound gelatin can be stained with Ponceau S or Commassie Brilliant Blue protein stains, and the degree of staining quantified densitometrically using a commercially available electrophoresis gel documentation system supported by dedicated analytical software. The nitrocellulose filtration is conducted using a commercially available dot- or slot-blotting apparatus.
The gelatinase assay described here has been validated by comparison with results obtained with an established collagenase assay using radioactive or fluorescently labeled collagen as substrate.
The enzymatic cleavage of commercially available synthetic internally quenched fluorigenic peptide substrates such as 7-methylcoumarin-4-yl-acetyl-prolyleucyl-glycyl-leucyl-(dinitrophenyl-L-α,β-diaminopropionyl)-alanyl-arginylamide (Mca-Pro-Leu-Gly-Leu-Dap(Dnp)-Ala-Arg-NH2) at the scissile -Gly-Leu-peptide bond separates the fluorescent Mca group from the dinitrophenol quencher, resulting in a strong linear increase in fluorescence intensity that can be readily measured in a fluorimeter (λexitation328 nm, λemission 393 nm) over the first few minutes of the reaction. The specificity of the assay for matrix metalloproteinases is provided by the type I collagen-derived sequence -Pro-Leu-Gly-Leu- in the synthetic substrate, as well as by the incubation conditions. To test the efficacy of the synthetic collagenase/MMP inhibitors, the residual enzymatic activity remaining after an incubation of enzyme plus different amounts of inhibitor is measured at a fixed enzyme and substrate concentration. For each inhibitor, three test series at different fixed substrate concentrations were carried out. From the time-dependent increase in fluorescence intensity measured, the velocity (v) of the enzymatic activity can be calculated as increase in arbitrary fluorescence intensity units per minute. The inhibition constant Ki is calculated graphically by the method of Dixon (1953) by plotting the reciprocal of the reaction velocity 1/v on the ordinate, and the inhibitor concentration on the abscissa. The x-intercept of the linear plot is defined as minus K1 value.
1984 μl assay buffer (100 mM Tris-HCl pH 7,5, 100 mM NaCl, 10 mM CaCl2, 0,05% Brij 35) • 2 μl inhibitor dissolved in DMSO, or DMSO alone as a solvent control • 4 μl enzyme (MMP-2, MMP-9, or the catalytic domain of MMP-8) • 10 μl Mca-Pro-Leu-Gly-Leu-Dap(Dnp)-Ala-Arg-NH2 in DMSO Method • 1. […]

The target in experiment [2] is Clostridium histolyticum collagenase (EC 3.4.24.3). As to the kind of experiment: Inhibition of Clostridium histolyticum collagenase, spectrophotometric FALGPA assay. It is filed as biochemical. Conditions: chromogenic substrate FALGPA; read-out: C. histolyticum (50% inhibition). From the text:
The activity of Clostidium histolyticum collagenase may be readily determined by a simple spectrophotometric assay using the synthetic chromogenic peptide substrate N-(3-[2-furyl]acryloyi)-leucine-glycine-proline-alanine (FALGPA; Van Hart, H. E. and Steinbrink, D. R. 1981, Anal. Biochem. 113, 356). The degree of inhibition of the degradation of this chromogenic substrate by the addition of the various test substances described in Table 1 may be easily quantified. The enzyme and substrate are commercially available.

The record followed here is patent publication US6872727B1, “Polycyclic pyrimidine -2,4(1H,3H)-diones with functionalized alkyl residues at the 1- and/or 3-position(s); methods for their synthesis and pharmaceutical preparation” (Privates Institut fur Biomedizinische Forschung und Beratung, priority 1999, dated 2005).

For the compound `CC(CCS)n1c(=O)[nH]c2ccccc2c1=O` (racemic) [Example 18, (R,S)-3-[3-(1-methyl)-mercaptopropyl]-chinazolin-2,4(1H,3H)-dione], in experiment [1], the IC50 stood at 8.3 µM.
`Cn1c(=O)c2sccc2n(CCS)c1=O` [Example 17, 1-(2-mercaptoethyl)-3-methyl-thieno[3,2-d]-pyrimidine-2,4(1H,3H)-dione]: the IC50 in experiment [1] is 20 µM.
Turning to `O=c1[nH]c(=O)n(CCCS)c2ccccc12` [Example 4, 1-(3-mercaptopropyl)-chinazolin-2,4(1H,3H)-dione], the IC50 came out at 53.8 µM in experiment [2] and 5 µM in experiment [1].
In the case of `O=c1[nH]c(=O)n(CCS)c2ccccc12` [Example 5, 1-(2-mercaptoethyl)-chinazolin-2,4(1H,3H)-dione], the results for the IC50 in experiment [2] and in experiment [1] were 39.2 µM and 61.3 µM, respectively.
With `Cn1c(=O)c2sccc2n(CCCS)c1=O` [Example 14, 1-(3-mercaptoprop-1-yl)-3-methyl-thieno(3,2-d)-pyrimidin-2,4(1H,3H)-dione], the IC50 in experiment [1] was 20 µM.
Regarding `CC(S)CCn1c(=O)[nH]c(=O)c2ccccc21` (racemic) [Example 3, (R,S)-1-(3-mercaptobut-1-yl)-chinazolin-2,4(1H,3H)-dione], the IC50 was 27.5 µM in experiment [2] and 13.2 µM in experiment [1].
`Cn1c(=O)c2ccccc2n(CCCS)c1=O` [Example 7, 1-(3-mercaptoprop-1-yl)-3-methyl-chinazolin-2,4(1H,3H)-dione]: the IC50 in experiment [2] amounted to 11.5 µM; in experiment [1], 6 µM.
Regarding `O=c1[nH]c2ccccc2c(=O)n1CCCCS` [Example 12, 3-(4-mercaptobut-1-yl)-chinazolin-2,4(1H,3H)-dione], in experiment [1], the IC50 amounted to 8.3 µM.
